Measured values: US20260297042A1, “BIARYLAMIDE DERIVATIVES AND THEIR USE AS PKMYT1 INHIBITORS” (CANCER RESEARCH TECHNOLOGY LIMITED, priority 2023, published 2026)
Structures can show the parent of a compound that is named as a salt.

Experiments:
[1] = target: T1, Cellular PKMYT1 Biomarker CDK1 pT14 (Homo sapiens, UniProt Q99640); test: Inhibition of cellular PKMYT1 biomarker CDK1 pT14 in OVCAR 3 cells (immunoblot); type: cell-based; conditions: 20 hours incubation
T1 construct: read-out CDK1 phospho-T14 immunoblot
T1 sequence (Q99640 1-499): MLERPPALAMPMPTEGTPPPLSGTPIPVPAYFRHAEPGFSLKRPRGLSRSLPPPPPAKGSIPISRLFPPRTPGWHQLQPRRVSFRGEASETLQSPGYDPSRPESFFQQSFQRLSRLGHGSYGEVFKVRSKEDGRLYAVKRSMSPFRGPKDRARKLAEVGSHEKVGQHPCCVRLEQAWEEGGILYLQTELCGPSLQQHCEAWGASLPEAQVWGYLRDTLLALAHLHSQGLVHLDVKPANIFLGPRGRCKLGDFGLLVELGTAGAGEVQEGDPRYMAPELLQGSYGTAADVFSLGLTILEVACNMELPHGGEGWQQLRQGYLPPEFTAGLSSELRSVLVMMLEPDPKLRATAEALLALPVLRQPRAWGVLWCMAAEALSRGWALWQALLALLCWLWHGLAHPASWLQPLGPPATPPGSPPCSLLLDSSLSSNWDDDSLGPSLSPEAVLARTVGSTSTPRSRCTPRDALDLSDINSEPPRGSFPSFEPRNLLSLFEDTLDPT
Method in brief: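 Confluent OVCAR 3 cells treated with a compound concentration range for 20 h at 37 °C. Lysates analysed by automated capillary immunoblot for CDK1 phospho-T14, with vinculin, fluorescence detection; IC50 by regression.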

KYSE-30 cells = test: Cancer cell line proliferation assay, ATP-based cell viability (Cell Titre Glow), KYSE-30 (normal CCNE1); conditions: Homo sapiens, KYSE-30 cells (normal CCNE1), concentration that achieves 50% cell growth proliferation inhibition, read-out: KYSE30 Gl50
Method in brief: (§1)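 Proliferation of KYSE-30 (normal CCNE1) and CCNE1-amplified OVCAR 3 ovarian cancer cells treated with PKMYT1 inhibitors, read by Cell Titre Glow luminescence. GI50 is the concentration giving 50% growth inhibition.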

WEE1 = target: T2, WEE1 (Homo sapiens, UniProt P30291); test: Selectivity versus WEE1 assay (ADP-Glo enzymatic assay); type: biochemical; conditions: for IC50: ADP-Glo; for PKMYT1 vs. WEE1 selectivity: fold difference in selectivity for PKMYT1 over WEE1
T2 construct: purchased Thermo Fisher PR7373A
Method in brief: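 Same format as the PKMYT1 assay: WEE1 at 15 nM final with 30 µM ATP, 60 min at 26° C, ADP-Glo luminescence detection, IC50 by dose-response fitting.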

OVCAR 3 cells = test: Cancer cell line proliferation assay, ATP-based cell viability (Cell Titre Glow), OVCAR 3 (CCNE1-amplified); conditions: KYSE30 (normal CCNE1) GI50 vs. OVCAR 3 (CCNE1-amplified) GI50
Method in brief: as §1

Human PKMYT1 = target: T3, Human PKMYT1 (Homo sapiens, UniProt Q99640); test: PKMYT1 biochemical ADP-Glo enzymatic assay; conditions: ADP-Glo
T3 construct: Human PKMYT1 75-362 was cloned as a TEV cleavable 6xHis fusion; 6xHis (TEV cleavable) (cleaved yes); made in house; host or cells: bacterial cells
T3 sequence (Q99640 75-362): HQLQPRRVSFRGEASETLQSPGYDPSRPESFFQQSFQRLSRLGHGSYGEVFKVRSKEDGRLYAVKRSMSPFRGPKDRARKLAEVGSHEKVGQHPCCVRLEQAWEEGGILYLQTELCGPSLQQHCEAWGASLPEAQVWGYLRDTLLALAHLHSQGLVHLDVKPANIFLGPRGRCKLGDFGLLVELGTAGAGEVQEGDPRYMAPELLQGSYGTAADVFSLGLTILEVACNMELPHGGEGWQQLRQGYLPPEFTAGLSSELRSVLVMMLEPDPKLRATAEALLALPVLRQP
Method in brief: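 Measures inhibition of PKMYT1 autonomous ATP hydrolysis: bacterially expressed human enzyme (75-362, tag cleaved) at 15 nM with 500 µM ATP for 60 min at 26 °C, then ADP-Glo Max detection. IC50s accepted only when replicates agreed within 3-fold and curve r2 exceeded 0.9.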

[2] = PKMYT1 kinase domain 15 nM, banded values
[3] = 15 nM WEE1, 60 minutes at 26° C., banded
[4] = banded, ">N" = at least in this band but could be higher
[5] = 15 nM PKMYT1 kinase domain, 500 µM ATP, 60 minutes at 26° C., banded

T2 sequence (P30291 whole entry): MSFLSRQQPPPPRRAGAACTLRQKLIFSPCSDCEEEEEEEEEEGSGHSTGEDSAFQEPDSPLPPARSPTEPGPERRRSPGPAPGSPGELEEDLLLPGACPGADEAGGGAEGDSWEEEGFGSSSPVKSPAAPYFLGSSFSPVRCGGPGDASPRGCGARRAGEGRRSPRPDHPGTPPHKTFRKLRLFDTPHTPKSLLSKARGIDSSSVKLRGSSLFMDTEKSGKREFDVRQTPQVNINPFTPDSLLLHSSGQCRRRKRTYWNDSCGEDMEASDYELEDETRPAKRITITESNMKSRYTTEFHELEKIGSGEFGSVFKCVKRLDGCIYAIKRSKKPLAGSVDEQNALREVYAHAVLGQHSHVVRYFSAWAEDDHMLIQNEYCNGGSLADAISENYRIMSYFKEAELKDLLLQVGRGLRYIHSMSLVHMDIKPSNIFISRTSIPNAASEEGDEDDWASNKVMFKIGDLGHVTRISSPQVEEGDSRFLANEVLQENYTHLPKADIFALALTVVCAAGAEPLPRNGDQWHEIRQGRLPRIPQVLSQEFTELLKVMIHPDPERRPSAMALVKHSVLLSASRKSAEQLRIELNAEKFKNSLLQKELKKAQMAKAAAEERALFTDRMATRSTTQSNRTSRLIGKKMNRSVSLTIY

Compound	IC50 [1] [nM]	GI50 (KYSE-30 cells) [µM]	IC50 (WEE1; WEE1 15 nM, banded values) [µM]	PKMYT1 vs. WEE1 selectivity (WEE1; banded)	Selectivity ratio KYSE30 Gl50 vs. OVCAR3 Gl50 (OVCAR 3 cells)	IC50 (Human PKMYT1; [2]) [nM]	IC50 (WEE1; [3]) [µM]	PKMYT1 vs. WEE1 selectivity (WEE1; [4])	IC50 (Human PKMYT1; [5]) [nM]
CCc1cn(CC#N)nc1Nc1ncc(C(=O)Nc2c(C)ccc(O)c2C)s1 [BAA-590, 2-((1-(cyanomethyl)-4-ethyl-1H-pyrazol-3-yl)amino)-N-(3-hydroxy-2,6-dimethylphenyl)thiazole-5-carboxamide. TFA salt]	< 100	> 5	0.05 to 1	W (10-<100 fold)	Y (>20 fold)	< 50	–	–	–
Cc1ccc(O)c(C)c1NC(=O)c1cnc(Nc2cccc(C3CC3)n2)s1 [BAA-409, 2-((6-cyclopropylpyridin-2-yl)amino)-N-(3-hydroxy-2,6-dimethylphenyl)thiazole-5-carboxamide]	< 100	0.5 to 5	1 to 11	X (100-<1000 fold)	Y (>20 fold)	< 50	–	–	–
Cc1cn(S(=O)(=O)c2ccccc2)nc1Nc1ncc(C(=O)Nc2c(C)ccc(O)c2C)s1 [BAA-379, N-(3-Hydroxy-2,6-dimethylphenyl)-2-((4-methyl-1-(phenylsulfonyl)-1H-pyrazol-3-yl)amino)thiazole-5-carboxamide]	< 100	> 5	–	–	X (3-20 fold)	–	> 11	X (100-<1000 fold)	< 50
CCn1nc(Nc2ncc(C(=O)Nc3c(C)ccc(O)c3C)s2)c2cc(F)ccc21 [BAA-459, 2-((1-ethyl-5-fluoro-1H-indazol-3-yl)amino)-N-(3-hydroxy-2,6-dimethylphenyl)thiazole-5-carboxamide]	< 100	> 5	> 11	X (100-<1000 fold)	Y (>20 fold)	50 to 1000	–	–	–
Cc1ccc(NC(=O)c2ccc(F)cc2)nc1Nc1ncc(C(=O)Nc2c(C)ccc(O)c2C)s1 [BAA-309, 2-((6-(4-fluorobenzamido)-3-methylpyridin-2-yl)amino)-N-(3-hydroxy-2,6-dimethylphenyl)thiazole-5-carboxamide]	< 100	0.5 to 5	–	–	Y (>20 fold)	–	> 11	Y (1000-5000 fold)	50 to 1000
Cc1cc(Nc2ncc(C(=O)Nc3c(C)ccc(O)c3C)s2)nc(NCCC(C)(C)C)n1 [BAA-338, 2-((2-((3,3-Dimethylbutyl)amino)-6-methylpyrimidin-4-yl)amino)-N-(3-hydroxy-2,6-dimethylphenyl)thiazole-5-carboxamide]	< 100	< 0.5	–	–	Y (>20 fold)	–	1 to 11	X (100-<1000 fold)	< 50
Cc1ccc(O)c(C)c1NC(=O)c1cnc(Nc2cccc(NC(=O)c3ccc(F)cc3)n2)s1 [BAA-320, 2-((6-(4-fluorobenzamido)pyridin-2-yl)amino)-N-(3-hydroxy-2,6-dimethylphenyl)thiazole-5-carboxamide]	< 100	0.5 to 5	–	–	Y (>20 fold)	–	> 11	Y (1000-5000 fold)	< 50
CCN(C(=O)Cc1cccc(Nc2ncc(C(=O)Nc3c(C)ccc(O)c3C)s2)n1)C1CC1 [BAA-426, 2-((6-(2-(Cyclopropyl(ethyl)amino)-2-oxoethyl)pyridin-2-yl)amino)-N-(3-hydroxy-2,6-dimethylphenyl)thiazole-5-carboxamide]	< 100	0.5 to 5	> 11	Z (>5000 fold)	Y (>20 fold)	< 50	–	–	–
Cc1ccc(O)c(C)c1NC(=O)c1cnc(Nc2n[nH]cc2Cl)s1 [BAA-566, 2-((4-chloro-1H-pyrazol-3-yl)amino)-N-(3-hydroxy-2,6-dimethylphenyl)thiazole-5-carboxamide]	< 100	> 5	1 to 11	X (100-<1000 fold)	Y (>20 fold)	< 50	–	–	–
Cc1ccc(N[S+]([O-])C(C)(C)C)nc1Nc1ncc(C(=O)Nc2c(C)ccc(O)c2C)s1 (stereo not drawn) [BAA-340, 2-((6-((tert-Butylsulfinyl)amino)-3-methylpyridin-2-yl)amino)-N-(3-hydroxy-2,6-dimethylphenyl)thiazole-5-carboxamide]	100 to 1000	0.5 to 5	–	–	Y (>20 fold)	–	0.05 to 1	V (3-<10 fold)	< 50
CCn1nc(Nc2ncc(C(=O)Nc3c(C)ccc(O)c3C)s2)c2ccccc21 [BAA-458, 2-((1-ethyl-1H-indazol-3-yl)amino)-N-(3-hydroxy-2,6-dimethylphenyl)thiazole-5-carboxamide]	< 100	0.5 to 5	1 to 11	X (100-<1000 fold)	Y (>20 fold)	< 50	–	–	–
Cc1ccc2c(Nc3ncc(C(=O)Nc4c(C)ccc(O)c4C)s3)nn(C)c2c1 [BAA-451, 2-((1,6-dimethyl-1H-indazol-3-yl)amino)-N-(3-hydroxy-2,6-dimethylphenyl)thiazole-5-carboxamide]	< 100	> 5	1 to 11	X (100-<1000 fold)	Y (>20 fold)	< 50	–	–	–
COc1cc(-c2cccc(Nc3ncc(C(=O)Nc4c(C)ccc(O)c4C)s3)n2)cc(OC)c1OC [BAA-317, N-(3-hydroxy-2,6-dimethylphenyl)-2-((6-(3,4,5-trimethoxyphenyl)pyridin-2-yl)amino)thiazole-5-carboxamide]	< 100	0.5 to 5	–	–	Y (>20 fold)	–	> 11	Y (1000-5000 fold)	< 50
Cc1ccc(O)c(C)c1NC(=O)c1cnc(Nc2nn(C)c3ccccc23)s1 [BAA-126, N-(3-hydroxy-2,6-dimethyl-phenyl)-2-[(1-methylindazol-3-yl)amino]thiazole-5-carboxamide]	< 100	> 5	–	–	Y (>20 fold)	–	1 to 11	X (100-<1000 fold)	< 50
Cc1ccc(NC(=O)C(C)C)nc1Nc1ncc(C(=O)Nc2c(C)ccc(O)c2C)s1.Cl [BAA-332, N-(3-hydroxy-2,6-dimethylphenyl)-2-((6-isobutyramido-3-methylpyridin-2-yl)amino)thiazole-5-carboxamide hydrochloride]	< 100	0.5 to 5	–	–	Y (>20 fold)	–	> 11	X (100-<1000 fold)	< 50
Cc1nc(Nc2ncc(C(=O)Nc3c(C)ccc(O)c3C)s2)cc(N2CCN(CCO)CC2)n1 [BAA-220, N-(3-hydroxy-2,6-dimethyl-phenyl)-2-[[6-[4-(2-hydroxyethyl)piperazin-1-yl]-2-methyl-pyrimidin-4-yl]amino]thiazole-5-carboxamide]	100 to 1000	> 5	–	–	Y (>20 fold)	–	0.05 to 1	W (10-<100 fold)	< 50
